According to patent US6369070B1, “Methods for inhibiting mrp1” (Eli Lilly and Company, priority 1998, dated 2002):

Experiments:
MDR1 = biological target: T1, MDR1 (Homo sapiens, UniProt P08183); assay: Reversal of MDR1-mediated vincristine resistance in HL60/VCR cells; type: cell-based; details: oncolytic alone at the tested concentration
T1 construct: HL60/ADR and HL60/VCR are continuous cell lines, which were selected for doxorubicin and vincristine resistance respectively; endogenous in cells; host or cells: HL60/VCR (vincristine-selected HL60 human acute myeloblastic leukemia cells)
T1 sequence (P08183 whole entry): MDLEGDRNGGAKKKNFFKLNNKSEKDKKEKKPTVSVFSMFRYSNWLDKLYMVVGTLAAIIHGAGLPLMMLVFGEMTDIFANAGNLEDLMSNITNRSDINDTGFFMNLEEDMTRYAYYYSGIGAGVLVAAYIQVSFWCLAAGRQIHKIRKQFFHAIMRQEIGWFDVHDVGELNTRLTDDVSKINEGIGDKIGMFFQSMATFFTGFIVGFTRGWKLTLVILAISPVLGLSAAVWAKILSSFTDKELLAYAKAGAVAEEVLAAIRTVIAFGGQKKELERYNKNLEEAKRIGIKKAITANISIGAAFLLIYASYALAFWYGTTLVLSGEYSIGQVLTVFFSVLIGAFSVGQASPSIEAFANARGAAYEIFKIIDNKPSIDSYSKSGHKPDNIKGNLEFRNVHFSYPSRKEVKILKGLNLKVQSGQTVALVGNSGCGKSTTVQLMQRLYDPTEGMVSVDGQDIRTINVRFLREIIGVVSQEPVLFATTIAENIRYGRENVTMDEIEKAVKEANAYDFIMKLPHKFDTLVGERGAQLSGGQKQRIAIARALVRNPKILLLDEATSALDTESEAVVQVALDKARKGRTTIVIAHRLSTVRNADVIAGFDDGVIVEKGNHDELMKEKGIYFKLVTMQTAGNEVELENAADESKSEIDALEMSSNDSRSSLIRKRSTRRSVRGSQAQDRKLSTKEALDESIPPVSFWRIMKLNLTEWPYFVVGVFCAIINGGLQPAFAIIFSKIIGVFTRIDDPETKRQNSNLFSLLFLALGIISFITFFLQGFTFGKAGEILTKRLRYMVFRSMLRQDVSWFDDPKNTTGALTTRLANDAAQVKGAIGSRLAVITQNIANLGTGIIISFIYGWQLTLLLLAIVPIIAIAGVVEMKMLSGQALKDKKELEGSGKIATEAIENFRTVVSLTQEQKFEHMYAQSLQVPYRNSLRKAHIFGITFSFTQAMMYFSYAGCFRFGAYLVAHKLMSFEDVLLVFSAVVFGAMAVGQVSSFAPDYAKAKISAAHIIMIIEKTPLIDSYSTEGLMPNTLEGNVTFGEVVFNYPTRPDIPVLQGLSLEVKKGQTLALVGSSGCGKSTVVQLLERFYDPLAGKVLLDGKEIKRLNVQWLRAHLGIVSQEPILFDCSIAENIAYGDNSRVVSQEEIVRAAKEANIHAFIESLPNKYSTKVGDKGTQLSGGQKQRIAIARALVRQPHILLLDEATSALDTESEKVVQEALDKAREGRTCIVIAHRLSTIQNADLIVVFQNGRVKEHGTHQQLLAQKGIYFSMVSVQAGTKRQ
Experimental: (§1) Assay for Reversal of MRP1-Mediated Doxorubicin Resistance and MDR1-Mediated Vincristine Resistance: HL60/ADR and HL60/VCR are continuous cell lines, which were selected for doxorubicin and vincristine resistance respectively by culturing HL60, a human acute myeloblastic leukemia cell line, in increasing concentrations of doxorubicin or vincristine until a highly resistant variant was attained.
(§2) HL60/ADR and HL60/VCR cells were grown in RPMI 1640 (Gibco) containing […] (FBS) and 250 μg/ml GENTAMICIN™ (Sigma). Cells were harvested; washed twice with assay medium (same as culture media); counted; and diluted to 2×10^5 cells/ml in assay medium. Fifty microliters of cells were aliquoted into wells of a 96 well tissue culture plate. One column of each 96 well plate served as a negative control and received assay medium containing no cells.
(§3) Test compounds and reference compounds were dissolved in dimethyl sulfoxide (DMSO) at a concentration of 5 mM. Samples were diluted to 20 μM in assay medium and 25 μl of each test compound was added to 6 wells. Assay standards were run in quadruplicate. Twenty-five microliters of 0.4% DMSO was added to four wells as a solvent control.

MRP1 = biological target: T2, MRP1 (Homo sapiens, UniProt P33527); assay: Reversal of MRP1-mediated doxorubicin resistance in HL60/ADR cells; type: cell-based; details: HL60/ADR cells (printed EL60/ADR), oncolytic alone at the tested concentration
T2 construct: HL60/ADR and HL60/VCR are continuous cell lines, which were selected for doxorubicin and vincristine resistance respectively; endogenous in cells; host or cells: HL60/ADR (doxorubicin-selected HL60 human acute myeloblastic leukemia cells)
T2 sequence (P33527 whole entry): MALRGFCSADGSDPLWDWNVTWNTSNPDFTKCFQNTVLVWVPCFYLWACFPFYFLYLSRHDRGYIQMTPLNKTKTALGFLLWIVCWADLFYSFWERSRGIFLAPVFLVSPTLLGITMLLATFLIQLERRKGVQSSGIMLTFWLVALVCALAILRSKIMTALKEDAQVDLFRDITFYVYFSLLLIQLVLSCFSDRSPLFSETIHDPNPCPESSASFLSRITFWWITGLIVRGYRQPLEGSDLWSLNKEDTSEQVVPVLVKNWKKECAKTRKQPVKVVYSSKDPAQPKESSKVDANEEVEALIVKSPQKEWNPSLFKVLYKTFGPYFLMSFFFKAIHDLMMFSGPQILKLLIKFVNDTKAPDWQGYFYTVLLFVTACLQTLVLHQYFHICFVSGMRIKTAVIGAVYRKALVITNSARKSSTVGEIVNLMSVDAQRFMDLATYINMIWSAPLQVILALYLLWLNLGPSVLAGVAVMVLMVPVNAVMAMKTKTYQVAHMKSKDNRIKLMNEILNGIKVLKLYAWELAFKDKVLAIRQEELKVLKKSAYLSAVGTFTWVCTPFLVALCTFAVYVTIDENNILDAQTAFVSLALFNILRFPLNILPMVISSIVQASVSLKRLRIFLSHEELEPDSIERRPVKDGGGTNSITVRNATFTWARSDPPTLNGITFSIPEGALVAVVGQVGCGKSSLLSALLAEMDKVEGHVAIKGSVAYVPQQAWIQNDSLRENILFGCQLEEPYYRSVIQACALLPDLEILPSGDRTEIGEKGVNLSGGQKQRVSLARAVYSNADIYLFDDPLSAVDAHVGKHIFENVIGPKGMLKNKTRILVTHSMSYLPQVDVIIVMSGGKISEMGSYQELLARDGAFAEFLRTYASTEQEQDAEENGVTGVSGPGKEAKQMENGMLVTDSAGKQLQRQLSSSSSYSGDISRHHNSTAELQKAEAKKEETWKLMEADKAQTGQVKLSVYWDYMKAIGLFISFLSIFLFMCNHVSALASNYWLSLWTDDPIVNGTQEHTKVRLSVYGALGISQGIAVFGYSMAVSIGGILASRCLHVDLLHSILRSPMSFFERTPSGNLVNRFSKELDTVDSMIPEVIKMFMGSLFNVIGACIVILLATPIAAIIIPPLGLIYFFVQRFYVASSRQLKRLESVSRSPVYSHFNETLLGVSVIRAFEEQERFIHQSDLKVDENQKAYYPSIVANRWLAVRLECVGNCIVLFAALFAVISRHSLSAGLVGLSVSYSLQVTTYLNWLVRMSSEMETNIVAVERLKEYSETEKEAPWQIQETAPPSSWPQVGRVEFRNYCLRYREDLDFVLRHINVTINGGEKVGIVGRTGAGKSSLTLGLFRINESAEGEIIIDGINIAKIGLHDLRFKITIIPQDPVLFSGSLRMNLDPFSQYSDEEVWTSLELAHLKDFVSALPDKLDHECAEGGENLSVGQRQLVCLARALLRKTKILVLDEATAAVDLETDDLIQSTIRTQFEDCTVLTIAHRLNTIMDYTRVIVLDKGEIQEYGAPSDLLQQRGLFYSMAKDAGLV
Experimental: as §1, §2, §3

## COc1cccc2c1C(=O)c1c(O)c3c(c(O)c1C2=O)C[C@@](O)(C(=O)CO)C[C@@H]3O[C@H]1C[C@H](N)[C@H](O)[C@H](C)O1 [doxorubicin]
MDR1
  inhibition of cell growth by the oncolytic alone: does not usually inhibit the growth
MRP1
  inhibition of cell growth by the oncolytic alone: does not usually inhibit the growth
